These results are taken from patent publication US9958433B2, “Method and system for in vitro developmental toxicity testing” (Agency for Science, Technology and Research, priority 2012, dated 2018).

The subject of series [1] is micropatterned hESC colonies. The series can be described thus: Micropatterned hESC mesoendoderm pattern disruption (Brachyury immunofluorescence, Asymmetrical Ratio). To be noted: for Asymmetrical Ratio decrease relative to untreated control: 3 days of differentiation, control ratio 3; for Asymmetrical Ratio after treatment (average intensity ratio of ring area to off-ring area): human, 3 days. The text has this:
In order to generate gradients of mechanical stress, circle or square shapes of Matrigel matrix with two different sizes (785000 μm2 or 196250 μm2) were designed using AutoCAD software. Then polydimethylsiloxane (PDMS) stencils were fabricated by using a laser-cutter (Universal Laser System) to cut the designated shape patterns on a 127 μm thick PDMS sheet (Specialty Silicone Products Inc.) and then bonding it to a laser-cut, 2 mm thick PDMS gasket. For cell patterning, the PDMS stencil was first sealed into a 60 mm petri dish by adding 200 μl 70% ethanol and dried in the tissue culture hood, then Matrigel™ (BD Biosciences) matrix was coated by at least hour incubation with the Matrigel™ solution (FIG. 1). Thereafter cells were seeded at a density of 4 million cells/ml. After 1 hour incubation for cell attachment, the stencil and excess unattached cells were removed. The surface was then passivated with 0.5% pluronic acid for 10 mins before 3-time washing. The acquired patterned hESC were incubated overnight in mTesR1 maintenance medium (StemCell Technologies) for stabilization and the mesoendoderm induction was started the next day.
The differentiation of patterned hESC colonies were induced by mesoendoderm induction medium, which comprises of 100 ng/ml Activin, 25 ng/ml BMP4 and 10 ng/ml FGF2 in basal serum-free APEL™ medium (STEMdiff™, StemCell Technologies). For developmental toxicity testing, the patterned hESC colonies were cultured in mesoendoderm induction medium together with the test chemical. The induction lasted 3 days and the medium is half changed daily with/without the test chemical.
Samples were fixed on Day 3 of differentiation. Immunofluorescence staining was done to check the expression distribution of early mesoendodermal marker Brachyury. Image acquisition was done under 10× objective using Olympus fluorescence microscope and Asymmetrical Ratio was calculated using MATLAB programming (FIG. 5). Results
Three known teratogens (0.1 mM Valproic acid (VPA), 0.05 ug/ml 5-Fluorouracil (5-FU), and 0.8 mM Thalidomide) were tested using this model. Mesoendoderm induction medium together with the drug was added into our model and incubated for 3 days before the samples were fixed for immunofluorescence staining of Brachyury. Half of the medium was changed daily with the drug. An untreated control which was only cultured in mesoendoderm induction medium without any drug was also done. […] In order to measure the disruption, we used Asymmetrical Ratio as a parameter to evaluate the asymmetrical patterns with or without drug treatment, which indicate the average intensity ratio of “ring” area to “off-ring” area (FIG. 5).

In series [2] the test system is μP-hESC colony. Description: Live imaging / kymograph of collective cell migration in μP-hESC colony under drug treatment. The class given is cell-based, human. The source says: Spatially localized differentiated cells (at edge of stem cell colony) underwent coordinated cell movement to form a 3D-like structural motif as observed by live imaging (FIG. 8D). The trajectory of the coordinated cell movement can be seen from a space-time plot (kymograph) of the differentiating stem cells (FIG. 8E).

Series [3] relates to μP-hESC colonies. Description: PCA of morphological features of mesoendoderm motif in μP-hESC colonies (dose-dependent developmental toxicity). Here is the method: Alterations to the different morphological features of the mesoendoderm structural motif were quantitatively measured by image processing at different concentrations of drugs. These morphological features at different drug concentrations were analyzed with principal component analysis (PCA). A data point represents each morphological feature; the data point color represents the drug concentration used in the treatment. […] Data Collection Process: 1. Treat our μP-hESC colonies with 3 different concentrations of each drug and fix the samples on day 3 together with the untreated normal control samples. Acquire T immunofluorescence images of samples under Olympus fluorescence microscope. 2. Process all the T fluorescence images using Matlab to extract all the relevant morphological features of the samples representing the spatial distribution of the mesoendoderm motif (T^+ positive region in the images).

In series [4] the test system is human. The note with it: cited from earlier work.
For series [5], the system named is hESC cell line H9. The series can be described thus: Cytotoxicity test (MTS) on hESC. To be noted: at the drug's effective concentration (EC).
For series [6], the system named is adult human dermal fibroblasts (aHDFs). The series can be described thus: Cytotoxicity test (MTS) on adult fibroblasts. To be noted: at the drug's effective concentration (EC).
The subject of series [7] is hESC cell line H9.
The subject of series [8] is adult human dermal fibroblasts (aHDFs).

Where two headings read alike, the source gives them in different places. A value given as a limit tells only on which side of the number the result lay.

For the compound `O=C1CCC(N2C(=O)c3ccccc3C2=O)C(=O)N1` (stereo not shown) [Thalidomide], the “Localization of the mesoendoderm motif (T+ region)” value (from here on “Localization … (T+ region)”) in series [1] was “misplaced”. Also, the “Asymmetrical Ratio decrease relative to untreated control” value in series [1] (0.8 mM Thalidomide) is given as approximately 70%. The “Asymmetrical Ratio after treatment (average intensity ratio of ring area to off-ring area)” value (shortened to “Asymmetrical Ratio after treatment”) in series [1] (0.8 mM) is listed as approximately 0.9. Besides, the “Trajectories of collective cell migration (kymograph)” value (“Trajectories” below) in series [2] is listed as “disrupted”. In addition, in series [3], the “Drug classification by developmental toxicity effect” value (from here on “Drug classification”) was “both teratogenic and embryotoxic”. For the same compound, in series [3] (human, 3 days), the “Concentrations at which spatial distribution of mesoendoderm motif was significantly disrupted (PCA)” value is “>= 300 μM” and the “Effective concentration (lowest concentration which significantly disrupted spatial localization of mesoendoderm motif)” value is approximately 300 µM. In addition, in series [4], the Developmental deformation result is reported as “causes developmental deformation in human”. Besides, in series [5], the H9 cell survival was more than 50% and the “Toxicity to H9 cells” value was “toxic”. In series [6], the “Toxicity to aHDFs” value is “not toxic”.
As for `CC1=C(/C=C/C(C)=C/C=C/C(C)=C/C(=O)O)C(C)(C)CCC1` [RA, retinoic acid], the “Drug classification” value in series [3] is reported as “teratogenic”. Also, in series [3] (human, 3 days), the “Concentrations at which spatial distribution of mesoendoderm motif was significantly disrupted (PCA)” value was “>= 0.0036 μg/ml” and the “Effective concentration (lowest concentration which significantly disrupted spatial localization of mesoendoderm motif)” value was approximately 0.0036 µg/mL. Besides, the “Toxicity to H9 cells” value in series [5] is “not toxic”. In addition, the “Toxicity to aHDFs” value in series [6] is “not toxic”.
Turning to `CCCC(CCC)C(=O)O` [VPA, Valproic acid], the “Localization … (T+ region)” value in series [1] is “misplaced”. The “Asymmetrical Ratio decrease relative to untreated control” value in series [1] (0.1 mM VPA) is reported as approximately 70%. Moreover, the “Asymmetrical Ratio after treatment” value in series [1] (0.1 mM) is reported as approximately 0.9. In addition, in series [2], the “Trajectories” value is given as “disrupted”. The “Drug classification” value in series [3] was “very embryotoxic”. Further, in series [3] (human, 3 days), the “Concentrations at which spatial distribution of mesoendoderm motif was significantly disrupted (PCA)” value is “>= 0.8 mM” and the “Effective concentration (lowest concentration which significantly disrupted spatial localization of mesoendoderm motif)” value is approximately 800 µM. The “Toxicity to H9 cells” value in series [7] was “very toxic”. This compound had an H9 cell survival in series [7] (human) of approximately 20%. Further, in series [8], the “Toxicity to aHDFs” value was “a little toxic”.
In the case of `O=c1[nH]cc(F)c(=O)[nH]1` [5-FU, 5-Fluorouracil], the “Asymmetrical Ratio decrease relative to untreated control” value in series [1] (0.05 μg/ml 5-FU) came to 46.7%. In addition, the “Asymmetrical Ratio after treatment” value in series [1] (0.05 μg/ml) is 1.6.
Consider `CC1(C)S[C@@H]2[C@H](NC(=O)Cc3ccccc3)C(=O)N2[C@H]1C(=O)O` [Penicillin G], for which the “Localization … (T+ region)” value in series [1] (day3, FIG. 9B) was “remained unchanged”. In series [2] (day2-3 of differentiation), the “Trajectories” value was “unaffected”. For the same compound, the “PCA clustering of morphological features by drug concentration” value in series [3] (3 concentrations of each drug, day 3) is “cannot be segregated”. Further, the “Drug classification” value in series [3] (based on PCA and cytotoxicity test (MTS) results) is on record as “non-developmental toxic”. Further, the “Concentrations at which spatial distribution of mesoendoderm motif was significantly disrupted (PCA)” value in series [3] (day 3, μP-hESC colonies) was more than 1000 µg/mL. Besides, the “Effective concentration (lowest concentration which significantly disrupted spatial localization of mesoendoderm motif)” value in series [3] (μP-hESC models) is on record as “above 1000 μg/ml”.
